Assay results from the supplement of paper PMC10307832.

Tests used:
Test in all cases: relative viability (nuclei count vs DMSO), 5 days (fraction); higher = more cells survive
BGJ398 + Dasatinib = compound: CCN1CCN(c2ccc(Nc3cc(N(C)C(=O)Nc4c(Cl)c(OC)cc(OC)c4Cl)ncn3)cc2)CC1 [BGJ398] + Cc1nc(Nc2ncc(C(=O)Nc3c(C)cccc3Cl)s2)cc(N2CCN(CCO)CC2)n1 [Dasatinib] (partner 0.075 µM)
How it was run: (§1)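 Medians of duplicate plates are given as relative viability. That measure is the nuclei count in treated wells divided by the count in vehicle wells. Counts were taken on 4× images of lung cancer cell lines in 1536-well plates, 5 days after pin-tool dosing the day after seeding with one drug alone or a fixed anchor-drug dose plus five library-drug doses (not always all listed) in √10 steps.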

BGJ398 + Palbociclib = compound: CCN1CCN(c2ccc(Nc3cc(N(C)C(=O)Nc4c(Cl)c(OC)cc(OC)c4Cl)ncn3)cc2)CC1 [BGJ398] + CC(=O)c1c(C)c2cnc(Nc3ccc(N4CCNCC4)cn3)nc2n(C2CCCC2)c1=O [Palbociclib] (partner 0.5 µM)
How it was run: as §1

[1] = compound: C1=CC2=NC=CN=C2C=C1/C=C/3\C(=O)NC(=O)S3 + C[C@]1(O)C[C@@H](c2nc(-c3ccc4ccc(-c5ccccc5)nc4c3)c3c(N)nccn32)C1 [Linsitinib] (partner 1 µM)
How it was run: as §1

[2] = compound: C1=CC2=NC=CN=C2C=C1/C=C/3\C(=O)NC(=O)S3 + CC(C)C[C@H](NC(=O)[C@H](Cc1ccccc1)NC(=O)c1cnccn1)B(O)O [Bortezomib] (partner 0.002 µM)
How it was run: as §1

| Cell Line | relative viability (BGJ398 + Dasatinib; first compound 0.01 µM) | relative viability (BGJ398 + Dasatinib; first compound 0.03162 µM) | relative viability (BGJ398 + Dasatinib; first compound 0.1 µM) | relative viability (BGJ398 + Dasatinib; first compound 0.3162 µM) | relative viability (BGJ398 + Dasatinib; first compound 1 µM) | relative viability (BGJ398 + Palbociclib; first compound 0.01 µM) | relative viability (BGJ398 + Palbociclib; first compound 0.03162 µM) | relative viability (BGJ398 + Palbociclib; first compound 0.1 µM) | relative viability (BGJ398 + Palbociclib; first compound 0.3162 µM) | relative viability (BGJ398 + Palbociclib; first compound 1 µM) | relative viability ([1]; first compound 0.02 µM) | relative viability ([1]; first compound 0.06325 µM) | relative viability ([1]; first compound 0.2 µM) | relative viability ([1]; first compound 0.6325 µM) | relative viability ([1]; first compound 2 µM) | relative viability ([2]; first compound 0.02 µM) | relative viability ([2]; first compound 0.06325 µM) | relative viability ([2]; first compound 0.2 µM) | relative viability ([2]; first compound 0.6325 µM) | relative viability ([2]; first compound 2 µM) |
| --- | --- | --- | --- | --- | --- | --- | --- | --- | --- | --- | --- | --- | --- | --- | --- | --- | --- | --- | --- | --- |
| NCI-H647 | 0.164 | 0.188 | 0.178 | 0.178 | 0.0946 | 0.388 | 0.375 | 0.517 | 0.395 | 0.413 | 1.13 | 1.51 | 1.41 | 1.1 | 1.08 | 1.1 | 1.16 | 1.11 | 0.72 | 0.951 |
| NCI-H650 | 0.414 | 0.515 | 0.526 | 0.45 | 0.401 | 0.313 | 0.375 | 0.321 | 0.379 | 0.315 | 1.13 | 0.922 | 1.17 | 0.832 | 0.731 | 0.977 | 0.775 | 0.907 | 0.78 | 0.379 |
| NCI-H661 | 0.835 | 0.854 | 0.897 | 0.79 | 0.746 | 0.422 | 0.406 | 0.384 | 0.4 | 0.398 | 0.59 | 0.501 | 0.606 | 0.583 | 0.56 | 0.925 | 0.614 | 0.812 | 0.751 | 0.95 |
| NCI-H727 | 0.462 | 0.337 | 0.316 | 0.384 | 0.447 | 0.806 | 0.651 | 0.647 | 0.686 | 0.691 | 0.341 | 0.223 | 0.33 | 0.403 | 0.252 | 0.777 | 0.828 | 0.795 | 0.833 | 0.475 |
| NCI-H838 | 0.278 | 0.337 | 0.28 | 0.257 | 0.225 | 0.203 | 0.203 | 0.217 | 0.22 | 0.195 | 0.955 | 1.03 | 0.958 | 0.913 | 1 | 0.711 | 0.908 | 0.878 | 0.595 | 0.684 |
| NCI-H1355 | 0.658 | 0.713 | 0.74 | 0.735 | 0.507 | 0.417 | 0.402 | 0.376 | 0.389 | 0.386 | 0.805 | 0.782 | 0.843 | 0.79 | 0.804 | 1.02 | 1.23 | 1.18 | 1.2 | 1.05 |
| NCI-H1437 | 0.484 | 0.444 | 0.373 | 0.42 | 0.424 | 0.383 | 0.309 | 0.323 | 0.337 | 0.278 | 0.899 | 1.2 | 1.05 | 0.979 | 0.969 | 0.475 | 0.647 | 0.564 | 0.475 | 0.408 |
| NCI-H1651 | 0.48 | 0.416 | 0.482 | 0.256 | 0.333 | 0.507 | 0.561 | 0.554 | 0.54 | 0.498 | 0.894 | 1.03 | 0.989 | 0.916 | 0.939 | 0.956 | 0.637 | 0.949 | 0.96 | 0.893 |
| NCI-H1666 | 0.764 | 0.802 | 0.911 | 0.759 | 0.697 | 0.659 | 0.631 | 0.666 | 0.641 | 0.638 | 0.789 | 0.848 | 0.807 | 0.843 | 0.911 | 0.834 | 0.854 | 1.06 | 0.649 | 0.673 |
| NCI-H1734 | 0.443 | 0.53 | 0.514 | 0.425 | 0.468 | 0.329 | 0.352 | 0.355 | 0.359 | 0.355 | 0.856 | – | 0.853 | 0.789 | 0.841 | 0.761 | – | 1 | 0.919 | 0.747 |
| NCI-H1755 | 0.406 | 0.464 | 0.45 | 0.411 | 0.313 | 0.464 | 0.473 | 0.461 | 0.468 | 0.441 | 0.927 | 0.995 | 1.02 | 0.978 | 0.979 | 0.927 | 1.05 | 0.961 | 0.917 | 0.859 |
| NCI-H1792 | 0.644 | 0.783 | 0.741 | 0.497 | 0.343 | 0.637 | 0.733 | 0.61 | 0.655 | 0.532 | 0.519 | 0.309 | 0.557 | 0.456 | 0.593 | 0.863 | 0.734 | 0.928 | 0.952 | 0.688 |
| NCI-H1915 | 0.308 | 0.306 | 0.309 | 0.295 | 0.261 | 0.525 | 0.533 | 0.532 | 0.529 | 0.556 | 1.1 | 1.18 | 1.11 | 1.12 | 1.08 | 0.985 | 1.05 | 1.05 | 0.99 | 1 |
| NCI-H1975 | 0.359 | 0.449 | 0.378 | 0.34 | 0.316 | 0.575 | 0.678 | 0.672 | 0.546 | 0.417 | 0.819 | 1.01 | 1.09 | 0.884 | 0.934 | 0.355 | 0.365 | 0.401 | 0.368 | 0.36 |
| NCI-H1993 | 0.694 | 0.595 | 0.611 | 0.641 | 0.578 | 0.674 | 0.639 | 0.655 | 0.692 | 0.724 | 0.712 | 0.797 | 0.751 | 0.795 | 0.713 | 0.892 | 1.02 | 1.05 | 0.952 | 0.724 |
| NCI-H2009 | 0.275 | 0.311 | 0.295 | 0.329 | 0.297 | 0.268 | 0.222 | 0.197 | 0.268 | 0.241 | 1.16 | 1.26 | 1.26 | 1.18 | 1.2 | 0.954 | 1.07 | 1.11 | 0.969 | 0.801 |
| NCI-H2023 | 0.517 | 0.537 | 0.582 | 0.489 | 0.438 | 0.341 | 0.493 | 0.285 | 0.456 | 0.404 | 0.626 | 0.787 | 0.611 | 0.568 | 0.632 | 0.924 | 0.923 | 1.03 | 0.875 | 0.645 |
| NCI-H2085 | 0.272 | 0.236 | 0.215 | 0.279 | 0.229 | 0.494 | 0.476 | 0.472 | 0.447 | 0.521 | 0.807 | 0.886 | 0.826 | 0.806 | 0.969 | 1.03 | 1.07 | 1.02 | 0.824 | 1.01 |
| NCI-H2087 | 0.824 | 0.898 | 0.808 | 0.801 | 0.871 | 0.266 | 0.224 | 0.204 | 0.282 | 0.184 | 1.07 | 0.911 | 0.996 | 0.937 | 0.954 | 0.831 | 0.942 | 0.68 | 0.809 | 0.805 |
| NCI-H2126 | 0.696 | 0.646 | 0.565 | 0.687 | 0.563 | 0.374 | 0.344 | 0.36 | 0.351 | 0.335 | 0.682 | 0.773 | 0.715 | 0.688 | 0.685 | 1.08 | 1.16 | 1.11 | 1.08 | 0.716 |
| NCI-H2228 | 0.471 | 0.498 | 0.516 | 0.567 | 0.423 | 0.645 | 0.885 | 0.922 | 0.638 | 0.738 | 0.622 | 0.447 | 1.08 | 0.55 | 0.609 | 0.948 | 0.881 | 1.23 | 1.06 | 0.82 |
| NCI-H2347 | 0.314 | 0.291 | 0.342 | 0.278 | 0.262 | 0.427 | 0.467 | 0.477 | 0.47 | 0.422 | 1.01 | 0.957 | 0.957 | 0.993 | 0.92 | 0.769 | 1.17 | 1.05 | 0.932 | 0.926 |
| NCI-H2405 | 0.213 | 0.236 | 0.233 | 0.225 | 0.192 | 0.523 | 0.586 | 0.52 | 0.553 | 0.547 | 0.96 | 1.08 | 1.03 | 0.959 | 0.915 | 0.96 | 1.06 | 0.991 | 1 | 0.782 |
| NCI-H3122 | 0.761 | 0.833 | 0.923 | 0.785 | 0.991 | 0.174 | 0.166 | 0.175 | 0.176 | 0.227 | 1.01 | 1.15 | 0.955 | 1 | 1.17 | 1.02 | 1.01 | 1 | 1.08 | 0.975 |
| PC-3 [JPC-3] | 0.949 | – | 1.02 | 0.854 | 1.01 | 0.591 | – | 0.522 | – | 0.569 | 0.889 | 1.01 | 0.879 | 0.923 | 0.963 | 0.735 | 0.853 | 0.879 | 0.851 | 0.852 |
| PC-14 | 0.294 | 0.0382 | 0.234 | 0.141 | 0.317 | 0.505 | 0.524 | 0.664 | – | 0.513 | 0.88 | 0.952 | 0.994 | 1.02 | 0.993 | 0.726 | 0.816 | 0.81 | 0.882 | 0.81 |
| RERF-LC-KJ | 0.655 | 0.933 | 0.753 | 0.858 | 0.819 | 1.13 | 0.781 | 1.17 | 1.11 | 1.23 | 0.82 | 1.03 | 0.894 | 0.811 | 0.853 | 1.25 | 1.17 | 1.23 | 1.14 | 1.11 |
| SK-LU-1 | 0.173 | 0.19 | 0.142 | 0.153 | 0.13 | 0.394 | 0.47 | 0.384 | 0.339 | 0.346 | 1.2 | 1.22 | 1.15 | 1.06 | 0.989 | 1.37 | 1.32 | 1.44 | 1.29 | 0.783 |
| SW 1573 | 0.439 | 0.668 | 0.466 | 0.462 | 0.574 | 0.399 | 0.419 | 0.402 | 0.423 | 0.404 | 0.78 | 0.825 | 0.943 | 0.847 | 0.714 | 0.996 | 1.21 | 1.17 | 0.835 | 0.95 |
